The values that follow come from patent US5783597A, “2,5-disubstituted thiophenes: inhibitors of 5-lipoxygenase and inducible cyclooxygenase (COX-2) enzymes, composition and use” (Ortho Pharmaceutical Corporation, priority 1997, dated 1998).

Structures are written as SMILES.

Experiment [1] addresses T1, 5-lipoxygenase (5-LO) (Rattus norvegicus, UniProt P12527).
T1 construct: endogenous in cells; host or cells: intact RBL-1 (rat basophilic leukemia) cells, stimulated with calcium ionophore A23187
T1 sequence (P12527 1-673): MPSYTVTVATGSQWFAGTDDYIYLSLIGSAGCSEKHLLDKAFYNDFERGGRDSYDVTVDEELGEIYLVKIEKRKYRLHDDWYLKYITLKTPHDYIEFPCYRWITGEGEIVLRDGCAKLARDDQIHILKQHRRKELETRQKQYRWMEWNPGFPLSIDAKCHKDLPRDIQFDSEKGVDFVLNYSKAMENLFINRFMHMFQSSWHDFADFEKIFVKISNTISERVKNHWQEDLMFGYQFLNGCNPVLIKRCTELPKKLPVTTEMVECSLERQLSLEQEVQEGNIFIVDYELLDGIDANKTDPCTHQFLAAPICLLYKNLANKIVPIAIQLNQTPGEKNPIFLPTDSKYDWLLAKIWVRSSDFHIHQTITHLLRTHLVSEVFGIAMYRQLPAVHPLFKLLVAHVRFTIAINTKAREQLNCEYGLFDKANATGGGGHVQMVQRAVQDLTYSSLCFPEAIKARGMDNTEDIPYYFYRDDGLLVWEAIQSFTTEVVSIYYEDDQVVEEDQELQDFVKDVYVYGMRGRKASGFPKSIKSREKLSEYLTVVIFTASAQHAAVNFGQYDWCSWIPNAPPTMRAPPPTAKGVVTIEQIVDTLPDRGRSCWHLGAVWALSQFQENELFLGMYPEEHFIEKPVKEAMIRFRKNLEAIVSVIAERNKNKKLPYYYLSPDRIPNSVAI
As to the kind of experiment: RBL-1 cell 5-lipoxygenase and cyclooxygenase - Homogenate (Procedure I). The class given is biochemical. Particulars: RBL-1 homogenate supernatant, 5-HETE; read-out: Procedure I (5-LO) Homog. IC50. On the procedure:
RBL-1 cell 5-lipoxygenase and cyclooxugenase - Homogenate
Rat basophilic leukemia cells (RBL-1; 5×10^7 viable cells/mL) were disrupted by homogenization on ice (four 20 sec bursts) with a Brinkman polytron. […] The homogenate was then centrifuged at 9,220×g for 48 minutes at 4° C. The pellet was discarded and the supernatant was saved as the source of enzymes. The supernatant was pre-incubated for five minutes at 37° C. in the presence of 2 mM of CaCl2 and compound or vehicle (1% DMSO). The conversion of AA into products by CO and LO was initiated by adding 10 μL (50 μCi) of 1-^14 C-AA to each tube and incubated at 37° C. for 20 minutes. The reaction was stopped by adjusting the pH of each sample to 3 to 3.5 with 2M formic acid. Samples were extracted with three volumes of chloroform to isolate the products of 5-LO formed during the reaction. Fractions were dried under nitrogen, then resuspended in 40 μL of chloroform and spotted onto silica gel HL plates. The plates were developed in A-9 solvent. The dried plates were analyzed using a Bioscan Imaging TLC scanner to determine the percentage of radiolabelled M converted to 5-HETE (LO product) and PGD2 (CO product) in each sample.

Experiment [2] deals with T1, 5-lipoxygenase (5-LO). As to the kind of experiment: RBL-1 cell 5-lipoxygenase and cyclooxygenase - Whole cells (Procedure II). The class given is cell-based. Particulars: intact RBL-1 cells, 5-HETE; read-out: Procedure II (5-LO) Wh Cell IC50. The protocol:
RBL-1 Cell 5-Lipoxygenase and cyclooxygenase - Whole cells
The ability to inhibit 5-LO and CO in intact RBL-1 cells was also evaluated. […] Cells were collected by centrifugation, washed once in HBSS, and resuspended at a concentration of 1×10^5 cells/mL. Cells were incubated in the presence of vehicle or drug then centrifuged at 800×g for 10 minutes at 4° C. The supernatant was removed by aspiration and the cells were resuspended in 0.5 mL of HBSS. […] The conversion of M to 5-LO products was initiated by the addition of 10 μL (50 uCi) of 1-^14 C-AA. Products were isolated by acidification and extraction, followed by thin layer chromatography analysis as described above. Radioactive areas corresponding to authentic 5-LO (5-HETE) and CO (PGD2) products were quantitated by the Bioscan 2000 Imaging System.

For experiment [3], the target named is T2, Human Prostaglandin H2 Synthase Typ II (Cox-2) (Homo sapiens, UniProt P35354).
T2 construct: endogenous in cells; host or cells: ECV-304 cells treated with PMA and ionomycin for 16 hours
T2 sequence (P35354 18-604): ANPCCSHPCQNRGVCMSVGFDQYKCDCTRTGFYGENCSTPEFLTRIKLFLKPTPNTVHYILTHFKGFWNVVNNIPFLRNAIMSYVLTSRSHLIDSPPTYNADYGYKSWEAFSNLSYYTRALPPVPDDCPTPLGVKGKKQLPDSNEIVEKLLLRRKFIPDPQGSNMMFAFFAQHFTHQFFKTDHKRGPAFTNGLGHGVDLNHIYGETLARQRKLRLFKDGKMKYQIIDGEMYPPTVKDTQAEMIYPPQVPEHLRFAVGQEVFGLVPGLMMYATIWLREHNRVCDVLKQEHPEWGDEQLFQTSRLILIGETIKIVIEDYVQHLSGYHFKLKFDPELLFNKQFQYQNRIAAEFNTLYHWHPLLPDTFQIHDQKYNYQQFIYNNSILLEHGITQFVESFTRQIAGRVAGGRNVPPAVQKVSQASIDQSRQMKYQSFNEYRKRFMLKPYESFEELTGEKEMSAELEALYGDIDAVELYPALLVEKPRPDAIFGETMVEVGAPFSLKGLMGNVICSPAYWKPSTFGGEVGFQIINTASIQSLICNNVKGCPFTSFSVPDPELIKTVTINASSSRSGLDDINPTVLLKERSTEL
As to the kind of experiment: Human Prostaglandin H2 Synthase Typ II (Cox-2) Whole Cell Assay, ECV-304 cells (Procedure III). It is filed as cell-based. Particulars: @ 10 μM, ECV-304 whole cells; read-out: Procedure III (COX-2) Wh Cell, percent inhibition of PGE2 produced. The protocol:
Human Prostaglandin H2 Synthase Typ II (Cox-2) Whole Cell Assay (Multiple Concentrations)
ECV-304 (human, endothelial, umbilical cord) cells are maintained in culture in a suitable medium, and are trypsinized and plated at a density of 1×10^6 cells per well of a 6 well plate prior to assay. Approximately 28 hours later, 50 μg/ml PMA and […] ionomycin (both final concentrations) are added to each well and incubated for an additional 16 hours. Vehicle or test compounds are incubated with the cells for five minutes prior to initiation of Cox-2 enzyme activity by the addition of 30 μM arachidonic acid. Ten minutes later, an aliquot of the supernatant is withdrawn and the amount of PGE2 present quantitated by radioimmunoassay. Activity, reported as percent inhibition of PGE2 produced, is calculated as follows: […]

Take `CS(=O)(=O)Nc1ccc(-c2ccc(F)cc2)s1` [Example 32, N-5-[(4-fluoro)phenyl-thien-2-yl]methanesulfonamide]: the IC50 (in general, the concentration that gives 50% inhibition) at 5-lipoxygenase (5-LO) [1] was found to be 150 nM; on 5-lipoxygenase (5-LO) [2], 2100 nM. Moreover, in experiment [3], the inhibition – broadly, the relative decrease from the control value, in per cent – at 10 µM was found to be 3%.

In the case of `CS(=O)(=O)Nc1ccc(-c2ccccc2)s1` [Example 33, N-5-[phenyl-thien-2-yl]methanesulfonamide], the values for the IC50 at 5-lipoxygenase (5-LO) [1] and on 5-lipoxygenase (5-LO) [2] were 110 nM and 790 nM, respectively. Also, the inhibition at 10 µM in experiment [3] was determined as 31%.
